Test results as given in patent US8207177B2, “Inhibitors of E1 activating enzymes” (Millennium Pharmaceuticals, Inc., priority 2006, dated 2012).

Target: T1, recombinant human NAE enzyme (Homo sapiens, UniProt Q8TBC4)
T1 construct: His (N); made in house; host or cells: Sf9 insect cells (baculovirus, Bac-to-Bac), purified on Ni-NTA
T1 sequence (Q8TBC4 1-463): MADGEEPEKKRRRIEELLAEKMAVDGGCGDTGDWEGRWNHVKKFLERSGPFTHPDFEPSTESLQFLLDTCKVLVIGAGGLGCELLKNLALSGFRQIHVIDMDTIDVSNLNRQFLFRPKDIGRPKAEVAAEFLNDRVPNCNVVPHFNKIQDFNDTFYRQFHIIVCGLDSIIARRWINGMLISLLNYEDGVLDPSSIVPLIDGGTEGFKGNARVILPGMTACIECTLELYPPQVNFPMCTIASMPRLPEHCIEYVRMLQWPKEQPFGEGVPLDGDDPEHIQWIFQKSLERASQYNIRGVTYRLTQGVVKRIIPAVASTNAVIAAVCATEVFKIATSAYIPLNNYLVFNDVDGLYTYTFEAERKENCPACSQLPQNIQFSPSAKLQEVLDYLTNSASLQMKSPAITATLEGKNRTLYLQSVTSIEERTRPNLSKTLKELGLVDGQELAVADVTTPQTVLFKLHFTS
T1 sequence (Q13564 1-534 partner): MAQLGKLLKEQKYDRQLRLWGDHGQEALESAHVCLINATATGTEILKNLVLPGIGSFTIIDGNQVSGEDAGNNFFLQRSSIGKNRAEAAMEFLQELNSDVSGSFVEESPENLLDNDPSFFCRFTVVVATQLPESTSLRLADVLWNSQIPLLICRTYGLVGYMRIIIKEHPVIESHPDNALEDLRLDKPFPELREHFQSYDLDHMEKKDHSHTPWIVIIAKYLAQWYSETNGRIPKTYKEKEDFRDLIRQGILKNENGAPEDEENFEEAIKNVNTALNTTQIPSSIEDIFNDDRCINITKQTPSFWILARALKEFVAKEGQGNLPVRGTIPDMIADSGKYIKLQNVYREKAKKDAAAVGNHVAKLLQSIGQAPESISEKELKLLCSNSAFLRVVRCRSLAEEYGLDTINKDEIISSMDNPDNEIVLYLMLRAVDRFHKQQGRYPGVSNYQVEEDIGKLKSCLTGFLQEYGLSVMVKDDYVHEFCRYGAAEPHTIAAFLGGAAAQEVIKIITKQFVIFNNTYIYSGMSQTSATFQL
Experiment: Nedd8-Activating Enzyme (NAE) HTRF Assay
Type: biochemical
Conditions: threshold statement: less than or equal to 100 nM; 20 μM ATP, 90 minutes at 24° C.
Procedure: Following manufacturer instructions, baculoviruses were generated with the Bac-to-Bac Expression System (Invitrogen) for the following proteins: untagged NAEα (APPBP1; NP_003896.1), N-terminally His-tagged NAEβ (UBE1C; NP_003959.3), untagged SAEα (SAE1; NP_005491.1), N-terminally His-tagged SAEβ (UBA2; NP_005490.1), N-terminally His-tagged murine UAE (UBE1X; NP_033483). NAEα/His-NAEβ and SAEα/His-SAEβ complexes were generated by co-infection of Sf9 cells, which were harvested after 48 hours. His-mUAE was generated by single infection of Sf9 cells and harvested after 72 hours. Expressed proteins were purified by affinity chromatography (Ni—NTA agarose, Qiagen) using standard buffers. Ubc12 (UBE2M; NP_003960.1), Ubc9 (UBE2I; NP_003336.1), Ubc2 (UBE2A; NP_003327.2) were subcloned into pGEX (Pharmacia) and expressed as N-terminally GST tagged fusion proteins in E. coli. Expressed proteins were purified by conventional affinity chromatography using standard buffers. Nedd8 (NP_006147), Sumo-1 (NP_003343) and Ubiquitin (with optimized codons) were subcloned into pFLAG-2 (Sigma) and expressed as N-terminally Flag tagged fusion proteins in E. coli. Expressed proteins were purified by conventional chromatography using standard buffers. Nedd8-Activating Enzyme (NAE) HTRF Assay. The NAE enzymatic reaction totaled 50 μL and contained 50 mM HEPES (pH 7.5), 0.05% BSA, 5 mM MgCl2, 20 μM ATP, 250 μM GSH, 0.01 μM Ubc12-GST, 0.075 μM Nedd8-Flag and 0.28 nM recombinant human NAE enzyme. The enzymatic reaction mixture, with and without compound inhibitor, was incubated at 24° C. for 90 minutes in a 384-well plate before termination with 25 μL of Stop/Detection buffer (0.1M HEPES pH 7.5, 0.05% Tween20, 20 mM EDTA, 410 mM KF, 0.53 nM Europium-Cryptate labeled monoclonal anti-FLAG M2 antibody (CisBio International) and 8.125 μg/mL PHYCOLINK goat anti-GST allophycocyanin (XL-APC) antibody (Prozyme)). After incubation for 3 hours at 24° C., quantification of the FRET was performed on the Analyst™ HT 96.384 (Molecular Devices).

IC50, ≤ 100 nM:
CN(c1ncnc2c1ccn2[C@@H]1C[C@@H](COS(N)(=O)=O)[C@@H](O)C1)[C@H]1CCc2ccccc21 [Compound I-6, ((1S,2S,4R)-4-{4-[(1S)-2,3-dihydro-1H-inden-1-yl(methyl)amino]-7H-pyrrolo-[2,3-d]pyrimidin-7-yl}-2-hydroxycyclopentyl)methyl sulfamate]
NS(=O)(=O)OC[C@@H]1C[C@@H](n2ccc3c(Nc4ccccc4)ncnc32)C[C@@H]1O [Compound I-39, [(1S,2S,4R)-4-(4-anilino-7H-pyrrolo[2,3-d]pyrimidin-7-yl)-2-hydroxycyclopentyl]methyl sulfamate]
NS(=O)(=O)OC[C@@H]1C[C@@H](n2ccc3c(NCC4CC4)ncnc32)C[C@@H]1O [Compound I-25, ((1S,2S,4R)-4-{4-[(cyclopropylmethyl)amino]-7H-pyrrolo[2,3-d]pyrimidin-7-yl}-2-hydroxycyclopentyl)methyl sulfamate]
NS(=O)(=O)OC[C@@H]1C[C@@H](n2ccc3c(N[C@H]4CCc5cc(F)ccc54)ncnc32)C[C@@H]1O [Compound I-36, [(1S,2S,4R)-4-(4-{[(1S)-5-fluoro-2,3-dihydro-1H-inden-1-yl]amino}-7H-pyrrolo-[2,3-d]pyrimidin-7-yl)-2-hydroxycyclopentyl]methyl sulfamate]
NS(=O)(=O)OC[C@@H]1C[C@@H](n2ccc3c(N[C@H]4CCCc5ccccc54)ncnc32)C[C@@H]1O [Compound I-37, ((1S,2S,4R)-2-hydroxy-4-{4-[(1S)-1,2,3,4-tetrahydronaphthalen-1-ylamino]-7H-pyrrolo[2,3-d]pyrimidin-7-yl}cyclopentyl)methyl sulfamate]
NS(=O)(=O)OCC[C@@H]1C[C@@H](n2ccc3c(N[C@H]4CCc5ccccc54)ncnc32)C[C@@H]1O [Compound I-76, 2-((1S,2S,4R)-4-{4-[(1S)-2,3-dihydro-1H-inden-1-ylamino]-7H-pyrrolo[2,3-d]pyrimidin-7-yl}-2-hydroxycyclopentyl)ethyl sulfamate]
NS(=O)(=O)OC[C@@H]1C[C@@H](n2ccc3c(NCc4ccccc4C(F)(F)F)ncnc32)C[C@@H]1O [Compound I-47, [(1S,2S,4R)-2-hydroxy-4-(4-{[2-(trifluoromethyl)benzyl]amino}-7H-pyrrolo-[2,3-d]pyrimidin-7-yl)cyclopentyl]methyl sulfamate]
NS(=O)(=O)OC[C@@H]1C[C@@H](n2cc(F)c3c(NCc4ccccc4)ncnc32)C[C@@H]1O [Compound I-31, {(1S,2S,4R)-4-[4-(benzylamino)-5-fluoro-7H-pyrrolo[2,3-d]pyrimidin-7-yl]-2-hydroxycyclopentyl}methyl sulfamate]
NS(=O)(=O)OC[C@@H]1C[C@@H](n2ccc3c(NCc4cccc5ccccc45)ncnc32)C[C@@H]1O [Compound I-38, ((1S,2S,4R)-2-hydroxy-4-{4-[(1-naphthylmethyl)amino]-7H-pyrrolo[2,3-d]-pyrimidin-7-yl}cyclopentyl)methyl sulfamate]
C#Cc1cn([C@@H]2C[C@@H](COS(N)(=O)=O)[C@@H](O)C2)c2ncnc(C)c12 [Compound I-44, [(1S,2S,4R)-4-(5-ethynyl-4-methyl-7H-pyrrolo[2,3-d]pyrimidin-7-yl)-2-hydroxycyclopentyl]methyl sulfamate]
NS(=O)(=O)OC[C@@H]1C[C@@H](n2ccc3c(NCc4ccc5c(c4)OCO5)ncnc32)C[C@@H]1O [Compound I-26, ((1S,2S,4R)-4-{4-[(1,3-benzodioxol-5-ylmethyl)amino]-7H-pyrrolo[2,3-d]-pyrimidin-7-yl}-2-hydroxycyclopentyl)methyl sulfamate]
NS(=O)(=O)OC[C@@H]1C[C@@H](n2ccc3c(CCc4ccccc4)ncnc32)C[C@@H]1O [Compound I-28, {(1S,2S,4R)-2-hydroxy-4-[4-(2-phenylethyl)-7H-pyrrolo[2,3-d]pyrimidin-7-yl]-cyclopentyl}methyl sulfamate]
